Laboratory results: US10988459B2 (priority 2015, dated 2021)

These compounds were tested against human RIP1 kinase domain (2-375) (Homo sapiens (Human), UniProt Q13546) (assay: biochemical). Settings: Table 3; apparent Ki (Morrison tight-binding fit); 50 nM RIP1 kinase domain, 50 uM ATP, 2 hours incubation; read-out: Ki.
Type: biochemical
In short: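 Ki^app comes from Morrison tight-binding fits of fractional activity versus compound concentration. Activity was read as ADP production, via tracer displacement lowering fluorescence polarization (633 nm laser). Conditions: 2 h, 50 nM insect-cell-expressed enzyme, 50 uM ATP, 30 mM MgCl2, 1 mM DTT, 0.5% DMSO, pH 7.5 Hepes.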

human RIP1 kinase domain (2-375), sequence (Q13546 2-375): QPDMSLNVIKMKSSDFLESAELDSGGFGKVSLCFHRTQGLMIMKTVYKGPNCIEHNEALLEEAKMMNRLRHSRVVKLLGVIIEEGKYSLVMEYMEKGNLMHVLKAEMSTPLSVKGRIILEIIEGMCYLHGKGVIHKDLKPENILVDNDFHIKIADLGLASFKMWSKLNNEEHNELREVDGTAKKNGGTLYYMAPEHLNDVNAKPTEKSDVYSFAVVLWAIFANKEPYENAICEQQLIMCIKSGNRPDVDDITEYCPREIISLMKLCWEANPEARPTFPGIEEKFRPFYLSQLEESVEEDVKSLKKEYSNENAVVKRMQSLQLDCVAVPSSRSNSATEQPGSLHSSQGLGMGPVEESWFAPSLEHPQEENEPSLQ

| SMILES | Ki [nM] |
| --- | --- |
| Cc1cc2n(n1)CCC(NC(=O)c1ncn(Cc3ccccc3)n1)C(=O)N2C (stereo not drawn) [Example 333, 1-benzyl-N-(2,4-dimethyl-5-oxo-5,6,7,8-tetrahydro-4H-pyrazolo[1,5-a][1,3]diazepin-6-yl)-1H-1,2,4-triazole-3-carboxamide] | 68 |

Same assay, conditions: Table 5; apparent Ki (Morrison tight-binding fit); 50 nM RIP1 kinase domain, 50 uM ATP, 2 hours incubation; read-out: Ki

| Ki [nM] | SMILES |
| --- | --- |
| 70 | CN1C(=O)[C@@H](NC(=O)c2cn3c(C(F)(F)F)cccc3n2)COc2ccccc21 (single isomer, unassigned) [Example 792] |
| 206 | CN1C(=O)[C@@H](NC(=O)c2nc3n(n2)CCNC3c2ccccc2)COc2ccccc21 (stereo partly drawn) [Example 723, N-[(3S)-5-methyl-4-oxo-2,3-dihydro-1,5-benzoxazepin-3-yl]-8-phenyl-5,6,7,8-tetrahydro-[1,2,4]triazolo[1,5-a]pyrazine-2-carboxamide] |
| 225 | COCCNCc1cc2n(n1)CC[C@H](NC(=O)c1ncn(Cc3ccccc3)n1)C(=O)N2C (single isomer, unassigned) [Example 728] |
| 84 | CN1C(=O)[C@@H](NC(=O)c2ncn(Cc3ccccc3)n2)CCn2nc(CCO)cc21 [Example 766, 1-benzyl-N-[(6S)-2-(2-hydroxyethyl)-4-methyl-5-oxo-7,8-dihydro-6H-pyrazolo[1,5-a][1,3]diazepin-6-yl]-1,2,4-triazole-3-carboxamide] |
| 172 | COC1CN(CCc2cc3n(n2)CC[C@H](NC(=O)c2ncn(Cc4ccccc4F)n2)C(=O)N3C)C1 [Example 771, 1-[(2-fluorophenyl)methyl]-N-[(6S)-2-[-(3-methoxyazetidin-1-yl)ethyl]-4-methyl-5-oxo-7,8-dihydro-6H-pyrazolo[1,5-a][1,3]diazepin-6-yl]-1,2,4-triazole-3-carboxamide] |

Same assay, conditions: human RIP1 kinase domain (2-375), 50 uM ATP, 2 hours incubation, Transcreener ADP assay; read-out: RIP1 Ki

| SMILES | Ki [nM] |
| --- | --- |
| CN1C(=O)[C@@H](NC(=O)c2cn(Cc3ccc(F)c(F)c3)cn2)COc2c1cnn2C [Example 183, (S)-1-(3,4-difluorobenzyl)-N-(1,4-dimethyl-5-oxo-4,5,6,7-tetrahydro-1H-pyrazolo[3,4-b][1,4]oxazepin-6-yl)-1H-imidazole-4-carboxamide] | 1600 |
| CN1C(=O)C(NC(=O)c2n[nH]c3c2C[C@@H](C(F)(F)F)CC3)CCn2ccnc21 (stereo partly drawn) [Example 176, (5S)—N-(9-methyl-8-oxo-6,7,8,9-tetrahydro-5H-imidazo[1,2-a][1,3]diazepin-7-yl)-5-(trifluoromethyl)-4,5,6,7-tetrahydro-1H-indazole-3-carboxamide] | 1400 |
| CN1C(=O)[C@@H](NC(=O)c2nnn3c2CC(C(F)(F)F)CC3)COc2ccccc21 (stereo partly drawn) [Example 192, N—((S)-5-methyl-4-oxo-2,3,4,5-tetrahydrobenzo[b][1,4]oxazepin-3-yl)-5-(trifluoromethyl)-4,5,6,7-tetrahydro-[1,2,3]triazolo[1,5-a]pyridine-3-carboxamide] | 105 |
| CN1C(=O)[C@@H](NC(=O)c2cc3c(cn2)CO[C@]3(C)CC(F)(F)F)COc2ccccc21 [Example 161, (R)-1-methyl-N-((S)-5-methyl-4-oxo-2,3,4,5-tetrahydrobenzo[b][1,4]oxazepin-3-yl)-1-(2,2,2-trifluoroethyl)-1,3-dihydrofuro[3,4-c]pyridine-6-carboxamide] | 8.9 |

Next, values leading:

| Ki [nM] | SMILES |
| --- | --- |
| 61.7 | CN1C(=O)[C@@H](NC(=O)c2ncc3c(n2)C(C)(C)OC3)COc2ccccc21 [Example 217, (S)-7,7-dimethyl-N-(5-methyl-4-oxo-2,3,4,5-tetrahydrobenzo[b][1,4]oxazepin-3-yl)-5,7-dihydrofuro[3,4-d]pyrimidine-2-carboxamide] |
| 133 | CN1C(=O)C(NC(=O)c2nnc(Cc3ccccc3)[nH]2)CCn2nc3ccccc3c21 (stereo not drawn) [Example 108, 5-benzyl-N-(1-methyl-2-oxo-2,3,4,5-tetrahydro-1-[1,3]diazepino[1,2-b]indazol-3-yl)-4H-1,2,4-triazole-3-carboxamide] |
| 69.7 | Cc1cnn2c1N(C)C(=O)C(NC(=O)c1ncn(Cc3ccccc3)n1)CC2 (stereo not drawn) [Example 107, 1-benzyl-N-(3,4-dimethyl-5-oxo-5,6,7,8-tetrahydro-4H-pyrazolo[1,5-a][1,3]diazepin-6-yl)-1H-1,2,4-triazole-3-carboxamide] |
| 123 | CN1C(=O)C(NC(=O)c2ncn(Cc3ccccc3)n2)CCn2ccnc21 (stereo not drawn) [Example 195, 1-benzyl-N-(9-methyl-8-oxo-6,7,8,9-tetrahydro-5H-imidazo[1,2-a][1,3]diazepin-7-yl)-1H-1,2,4-triazole-3-carboxamide] |

Same assay, conditions: human RIP1 kinase domain (2-375), Transcreener ADP assay, 50 uM ATP, 2 hours incubation; read-out: RIP1 Ki

| Ki [nM] | SMILES |
| --- | --- |
| 31.8 | CN1C(=O)[C@H](NC(=O)c2ncn(Cc3ccc(F)cc3F)n2)CCn2nc([C@H]3CC3(F)F)cc21 [Example 316, 1-(2,4-difluorobenzyl)-N—((R)-2-((R)-2,2-difluorocyclopropyl)-4-methyl-5-oxo-5,6,7,8-tetrahydro-4H-pyrazolo[1,5-a][1,3]diazepin-6-yl)-1H-1,2,4-triazole-3-carboxamide] |
| 1100 | CC[C@@]1(C)OCc2cnc(C(=O)N[C@H]3CCn4nc(C)cc4N(C)C3=O)cc21 [Example 275, (R)—N—((S)-2,4-dimethyl-5-oxo-5,6,7,8-tetrahydro-4H-pyrazolo[1,5-a][1,3]diazepin-6-yl)-1-ethyl-1-methyl-1,3-dihydrofuro[3,4-c]pyridine-6-carboxamide] |
| 232 | CC[C@@]1(C)OCc2cc(C(=O)NC3CCn4nc(-c5ccccc5)cc4N(C)C3=O)ncc21 (stereo partly drawn) [Example 264, (3R)-3-ethyl-3-methyl-N-(4-methyl-5-oxo-2-phenyl-5,6,7,8-tetrahydro-4H-pyrazolo[1,5-a][1,3]diazepin-6-yl)-1,3-dihydrofuro[3,4-c]pyridine-6-carboxamide] |
| 17.8 | CN1C(=O)[C@H](NC(=O)c2ncn(Cc3cccc(F)c3F)n2)CCn2nc([C@H]3CC3(F)F)cc21 [Example 312, 1-(2,3-difluorobenzyl)-N—((R)-2-((R)-2,2-difluorocyclopropyl)-4-methyl-5-oxo-5,6,7,8-tetrahydro-4H-pyrazolo[1,5-a][1,3]diazepin-6-yl)-1H-1,2,4-triazole-3-carboxamide] |

Same assay, conditions: read-out: RIP1 Ki

| SMILES | Ki [nM] |
| --- | --- |
| CN1C(=O)[C@@H](NC(=O)c2n[nH]c3c2C[C@H](C(C)(C)C)CC3)COc2ccccc21 [Example 61, (R)-5-(tert-butyl)-N-((S)-5-methyl-4-oxo-2,3,4,5-tetrahydrobenzo[b][1,4]oxazepin-3-yl)-4,5,6,7-tetrahydro-1H-indazole-3-carboxamide] | 48 |

Same assay, conditions: tight-binding apparent inhibition constant; human RIP1 kinase domain (2-375) 50 nM, 50 uM ATP, 2 hours; read-out: Ki

| SMILES | Ki [nM] |
| --- | --- |
| CN1C(=O)[C@H](NC(=O)c2nnc(Cc3ccccc3)[nH]2)CCn2nc([C@H]3CC3(F)F)cc21 (racemic) [Example 673, 5-benzyl-N-[rac-(6R)-4-methyl-5-oxo-2-[rac-(1R)-2,2-difluorocyclopropyl]-7,8-dihydro-6H-pyrazolo[1,5-a] [1,3]diazepin-6-yl]-4H-1,2,4-triazole-3-carboxamide] | 41.2 |
| CN1C(=O)[C@@H](NC(=O)c2nc3n(n2)[C@H](c2ccccc2)CC3)CCn2nccc21 (single isomer, unassigned) [Example 614] | 790 |
| O=C(N[C@H]1CCc2cc(F)cc(F)c2NC1=O)c1nc2n(n1)[C@H](C(F)(F)F)CCC2 (single isomer, unassigned) [Example 430] | 21 |
| CN1C(=O)[C@@H](NC(=O)c2ncn(Cc3cccc(F)c3)n2)CCn2nc(C(F)(F)F)cc21 [Example 527] | 23 |
| CN1C(=O)[C@@H](NC(=O)c2nc3n(n2)CCOC32CCCC2)COc2ccccc21 [Example 562, N-[(3S)-5-methyl-4-oxo-2,3-dihydro-1,5-benzoxazepin-3-yl]spiro[5,6-dihydro-[1,2,4]triazolo[5,1-c][1,4]oxazine-8,1′-cyclopentane]-2-carboxamide] | 20 |

The next lines start with the values.

| Ki [nM] | SMILES |
| --- | --- |
| 9300 | Cc1cc2n(n1)CC[C@H](NC(=O)c1nc3n(n1)CCC31CCOC1)C(=O)N2C (stereo partly drawn) [Example 646, N-[(6S)-2,4-dimethyl-5-oxo-7,8-dihydro-6H-pyrazolo[1,5-a][1,3]diazepin-6-yl]spiro[5,6-dihydropyrrolo[1,2-b][1,2,4]triazole-7,3′-tetrahydrofuran]-2-carboxamide] |
| 80 | Cc1ncc2n1CC[C@@H](NC(=O)c1ncn(Cc3cc(F)ccc3F)n1)C(=O)N2C [Example 577, 1-[(2,5-difluorophenyl)methyl]-N-(3R)-1,7-dimethyl-2-oxo-4,5-dihydro-3H-imidazo[1,5-a][1,3]diazepin-3-yl-1,2,4-triazole-3-carboxamide] |
| 24 | CN1C(=O)[C@@H](NC(=O)c2ncn(Cc3ccccc3)n2)CCn2nc(C3(F)CC3)cc21 [Example 570, 1-benzyl-N-(6S)-2-(1-fluorocyclopropyl)-4-methyl-5-oxo-7,8-dihydro-6H-pyrazolo[1,5-a][1,3]diazepin-6-yl-1,2,4-triazole-3-carboxamide] |
| 870 | Cc1cc2n(n1)CC[C@H](NC(=O)c1ncn(C[C@H]3C[C@@H](C)C3)n1)C(=O)N2C [Example 499, N—((S)-2,4-dimethyl-5-oxo-5,6,7,8-tetrahydro-4H-pyrazolo[1,5-a][1,3]diazepin-6-yl)-1-(((1R,3S)-3-methylcyclobutyl)methyl)-1H-1,2,4-triazole-3-carboxamide] |
| 345 | CN1C(=O)C(NC(=O)c2ncn(Cc3ccccc3)n2)CCn2nc(C(C)(C)F)cc21 (single isomer, unassigned) [Example 369, 1-benzyl-N-[2-(1-fluoro-1-methyl-ethyl)-4-methyl-5-oxo-7,8-dihydro-6H-pyrazolo[1,5-a][1,3]diazepin-6-yl]-1,2,4-triazole-3-carboxamide] |
| 67 | CC[C@H]1C[C@H](Cn2cnc(C(=O)N[C@H]3CCn4nc(C)cc4N(C)C3=O)n2)C1 [Example 501, N—((S)-2,4-dimethyl-5-oxo-5,6,7,8-tetrahydro-4H-pyrazolo[1,5-a][1,3]diazepin-6-yl)-1-(((1S,3S)-3-ethylcyclobutyl)methyl)-1H-1,2,4-triazole-3-carboxamide] |
